{
  "source": "patent US9976183B2",
  "about": "“Biomarkers for cancers responsive to modulators of HEC1 activity” (TAIVEX THERAPEUTICS CORPORATION, priority 2011, dated 2018)",
  "format_in_all_cases": "cell-based",
  "key": {"PC3": {"system": "PC3", "assay": "Drug sensitivity, MTS cell viability assay (GI50)", "conditions": "Homo sapiens, PC-3, PC3, 96 hours", "protocol": "(§1) Drug sensitivity: Cell lines were screened for drug sensitivity by treatment with specified drugs 24 hours after seeding in appropriate seeding numbers into 96 well plates containing low glucose DME with 10% FBS. The drug was added to the plate in triplicate wells, and the cells are incubated in drug treated medium for 96 hours before cell viability was determined by MTS assay using CellTiter 96® Aqueous non-radioactive cell proliferation assay system (Promega, Madison, Wis. 53711 USA). The MTS assay was performed according to the manufacturer's instructions. Optical density was measured using a Bio-Tek 340 spectrophotometer (Bio-Tek, Winooski, Vt. 05404) and optical readings were then processed in Excel (Microsoft, Redmond, Wash. 98052-7329) and GraphPad Prism 5 linear regression software (GraphPad Software, La Jolla, Calif. 92037 USA) to determine concentration-response curves for calculating relative GI50s. […] The % growth inhibition of the test drug on cells were calculated as: [1−(Test Value)/(Control Value)]×100; these values were used to plot concentration-response curves, and then analyzed with linear regression software."}, "ZR-75-30": {"system": "ZR-75-30", "assay": "Drug sensitivity, MTS cell viability assay (GI50)", "conditions": "Homo sapiens, ZR-75-30, 96 hours", "protocol": "as §1"}, "U-937": {"system": "U-937", "assay": "Drug sensitivity, MTS cell viability assay (GI50)", "conditions": "Homo sapiens, U-937, 96 hours", "protocol": "as §1"}, "RS4:11": {"system": "RS4:11", "assay": "Drug sensitivity, MTS cell viability assay (GI50)", "conditions": "Homo sapiens, RS4:11, 96 hours", "protocol": "as §1"}, "Hs578T": {"system": "Hs578T", "assay": "Drug sensitivity, MTS cell viability assay (GI50)", "conditions": "Homo sapiens, Hs-578T, 96 hours", "protocol": "as §1"}, "ZR-75-1": {"system": "ZR-75-1", "assay": "Drug sensitivity, MTS cell viability assay (GI50)", "conditions": "Homo sapiens, ZR-75-1, 96 hours", "protocol": "as §1"}, "U2OS": {"system": "U2OS", "assay": "Drug sensitivity, MTS cell viability assay (GI50)", "conditions": "Homo sapiens, 96 hours", "protocol": "as §1"}, "RPMI8226": {"system": "RPMI8226", "assay": "Drug sensitivity, MTS cell viability assay (GI50)", "conditions": "Homo sapiens, RPMI-8226, RPMI8226, 96 hours", "protocol": "as §1"}, "MOLM-13": {"system": "MOLM-13", "assay": "Drug sensitivity, MTS cell viability assay (GI50)", "conditions": "Homo sapiens, MOLM-13, 96 hours", "protocol": "as §1"}, "MOLT-4": {"system": "MOLT-4", "assay": "Drug sensitivity, MTS cell viability assay (GI50)", "conditions": "Homo sapiens, MOLT-4, 96 hours", "protocol": "as §1"}, "A549": {"system": "A549", "assay": "Drug sensitivity, MTS cell viability assay (GI50)", "conditions": "Homo sapiens, A549, 96 hours", "protocol": "as §1"}, "MDA-MB-453": {"system": "MDA-MB-453", "assay": "Drug sensitivity, MTS cell viability assay (GI50)", "conditions": "Homo sapiens, MDA-MB-453, 96 hours", "protocol": "as §1"}, "MDA-MB-361": {"system": "MDA-MB-361", "assay": "Drug sensitivity, MTS cell viability assay (GI50)", "conditions": "Homo sapiens, MDA-MB-361, 96 hours", "protocol": "as §1"}, "N87": {"system": "N87", "assay": "Drug sensitivity, MTS cell viability assay (GI50)", "conditions": "N87, 96 hours", "protocol": "as §1"}, "MV4-11": {"system": "MV4-11", "assay": "Drug sensitivity, MTS cell viability assay (GI50)", "conditions": "Homo sapiens, MV4-11, 96 hours", "protocol": "as §1"}, "HeLa": {"system": "HeLa", "assay": "Drug sensitivity, MTS cell viability assay (GI50)", "conditions": "Homo sapiens, 96 hours", "protocol": "as §1"}, "MCF7": {"system": "MCF7", "assay": "Drug sensitivity, MTS cell viability assay (GI50)", "conditions": "Homo sapiens, MCF7, 96 hours", "protocol": "as §1"}, "KG-1": {"system": "KG-1", "assay": "Drug sensitivity, MTS cell viability assay (GI50)", "conditions": "Homo sapiens, KG-1, 96 hours", "protocol": "as §1"}, "NCI-H520": {"system": "NCI-H520", "assay": "Drug sensitivity, MTS cell viability assay (GI50)", "conditions": "Homo sapiens, NCI-H520, 96 hours", "protocol": "as §1"}, "Hep3B": {"system": "Hep3B", "assay": "Drug sensitivity, MTS cell viability assay (GI50)", "protocol": "as §1"}, "PLC/PRF/5": {"system": "PLC/PRF/5", "assay": "Drug sensitivity, MTS cell viability assay (GI50)", "conditions": "Homo sapiens, PLC/PRF/5, 96 hours", "protocol": "as §1"}, "T47D": {"system": "T47D", "assay": "Drug sensitivity, MTS cell viability assay (GI50)", "conditions": "Homo sapiens, 96 hours", "protocol": "as §1"}, "HCT116": {"system": "HCT116", "assay": "Drug sensitivity, MTS cell viability assay (GI50)", "conditions": "Homo sapiens, HCT-116, HCT116, 96 hours", "protocol": "as §1"}, "HCC1954": {"system": "HCC1954", "assay": "Drug sensitivity, MTS cell viability assay (GI50)", "conditions": "Homo sapiens, HCC1954, 96 hours", "protocol": "as §1"}, "COLO205": {"system": "COLO205", "assay": "Drug sensitivity, MTS cell viability assay (GI50)", "conditions": "Homo sapiens, COLO 205, COLO205, 96 hours", "protocol": "as §1"}, "BT474": {"system": "BT474", "assay": "Drug sensitivity, MTS cell viability assay (GI50)", "conditions": "Homo sapiens, BT-474, BT474, 96 hours", "protocol": "as §1"}, "HepG2": {"system": "HepG2", "assay": "Drug sensitivity, MTS cell viability assay (GI50)", "conditions": "Homo sapiens; HepG2, 96 hours, MTS", "protocol": "as §1"}, "[1]": {"system": "apoptotic caspases in resistant cell line (A549)", "assay": "Immunoblot of apoptotic and anti-apoptotic markers", "conditions": "A549, immunoblot (FIG. 5C, FIG. 5D)", "protocol": "(§2) Immunoblots: Cell lysates were by incubation of cells in radioimmunoprecipitation assay (RIPA) buffer (50 mM Tris-HCl, pH7.4, 150 mM NaCl, 1% NP40, 0.25% DOC, 0.1% SDS, 1 mM NaVO4, 1 mM EDTA, 1 ug/ml leupeptin, 1 μg/ml pepstatin) or 2.5× sample buffer (50 mM Tris-HCl, pH6.8, 1% SDS, 2.5% BME, 7.5% Glycerol, Bromophenol blue). Tissue samples were immersed in RIPA buffer, disrupted with a homogenizer, and centrifuged to clarify. Samples were then subjected to SDS-PAGE, blotted onto immunoblotting membranes, and incubated with primary antibodies in 3% BSA-TBST. Horseradish peroxidase—conjugated secondary antibodies were used for protein detection by enhanced chemiluminescence (Millipore, Billerica, Mass. 01821 USA). The following antibodies were used for Western blotting: anti-Rb monoclonal antibody 1F8 (Abcam, Cambridge, Mass. 02139-1517 USA); anti-p53 monoclonal antibody (Santa Cruz Biotechnology, Santa Cruz, Calif. 95060 USA); anti-β-actin monoclonal antibody AC-15 (Sigma Aldrich, St. Louis, Mo., USA)."}, "[2]": {"system": "apoptotic caspases in drug-responsive cells (HeLa)", "assay": "Immunoblot of apoptotic and anti-apoptotic markers", "conditions": "immunoblot (FIG. 5B, FIG. 5D)", "protocol": "as §2"}, "MEX-SA/Dx5": {"system": "MEX-SA/Dx5", "assay": "Drug sensitivity, MTS assay, drug resistant cell line", "conditions": "MEX-SA/Dx5, multi-drug resistant uterine sarcoma", "protocol": "as §1"}},
  "data": [
    {"molecule": "COc1ccc(Oc2cc(C)c(-c3csc(NC(=O)c4ccncc4)n3)c(C)c2)cc1", "note": "[compound 101001, N-(4-(4-(4-methoxyphenoxy)-2,6-dimethylphenyl)thiazol-2-yl)isonicotinamide]", "values": [
      {"measurement": "GI50", "setting": "PC3", "value": 60, "unit": "nM"},
      {"measurement": "GI50", "setting": "ZR-75-30", "value": 76.8, "unit": "nM"},
      {"measurement": "GI50", "setting": "U-937", "value": 22, "unit": "nM"},
      {"measurement": "GI50", "setting": "RS4:11", "value": 254, "unit": "nM"},
      {"measurement": "GI50", "setting": "Hs578T", "value": 143, "unit": "nM"},
      {"measurement": "GI50", "setting": "ZR-75-1", "value": 79.6, "unit": "nM"},
      {"measurement": "GI50", "setting": "U2OS", "value": 139, "unit": "nM"},
      {"measurement": "GI50", "setting": "RPMI8226", "value": 27.2, "unit": "nM"},
      {"measurement": "GI50", "setting": "MOLM-13", "value": 315, "unit": "nM"},
      {"measurement": "GI50", "setting": "MOLT-4", "value": "> 30000", "unit": "nM"},
      {"measurement": "GI50", "setting": "A549", "value": "> 10000", "unit": "nM"},
      {"measurement": "GI50", "setting": "MDA-MB-453", "value": 23.6, "unit": "nM"},
      {"measurement": "GI50", "setting": "MDA-MB-361", "value": "> 10000", "unit": "nM"},
      {"measurement": "GI50", "setting": "N87", "value": "> 30000", "unit": "nM"},
      {"measurement": "GI50", "setting": "MV4-11", "value": 231, "unit": "nM"},
      {"measurement": "GI50", "setting": "HeLa", "value": 15.8, "unit": "nM"},
      {"measurement": "GI50", "setting": "MCF7", "value": 63.7, "unit": "nM"},
      {"measurement": "GI50", "setting": "KG-1", "value": 28.9, "unit": "nM"},
      {"measurement": "GI50", "setting": "NCI-H520", "value": 67.9, "unit": "nM"},
      {"measurement": "GI50", "setting": "Hep3B; 96 hours, listed as 110001", "value": 104, "unit": "nM"},
      {"measurement": "GI50", "setting": "Hep3B; Homo sapiens, 96 h", "value": 96.1, "unit": "nM"},
      {"measurement": "GI50", "setting": "PLC/PRF/5", "value": 91.6, "unit": "nM"},
      {"measurement": "GI50", "setting": "T47D", "value": 17.1, "unit": "nM"},
      {"measurement": "GI50", "setting": "HCT116", "value": 38.9, "unit": "nM"},
      {"measurement": "GI50", "setting": "HCC1954", "value": "> 10000", "unit": "nM"},
      {"measurement": "GI50", "setting": "COLO205", "value": 40.2, "unit": "nM"},
      {"measurement": "GI50", "setting": "BT474", "value": 85.7, "unit": "nM"},
      {"measurement": "GI50", "setting": "HepG2", "value": 273, "unit": "nM"},
      {"measurement": "activation of apoptotic caspases", "setting": "[1]", "value": "did not show a similar response"},
      {"measurement": "activation of apoptotic caspases", "setting": "[2]", "value": "activation of apoptotic caspases"},
      {"measurement": "GI50", "setting": "MEX-SA/Dx5", "value": 34.9, "unit": "nM"}
    ]}
  ]
}
